Source: patent US9249115B2, “N,N1 substituted piperazines having combined antiaggregant, anticoagulant and vasodilatory activity, and method for producing same” (Vertex Closed Joint Stock Company, priority 2011, dated 2016)

How the values were obtained:
[1] = system: ADP-induced thrombocyte aggregation; assay: ADP-induced thrombocyte aggregation, donor human thrombocyte enriched plasm; assay type: cell-based; conditions: ADP inductor; for MA, %: human thrombocyte plasm; for inhibition at 1250 µM / inhibition at 2500 µM / inhibition at 5000 µM / inhibition at 200 µM / inhibition at 500 µM: Homo sapiens, read-out: (MA0-MAx): MA0 * 100%
Experimental: (§1) The study of antiaggregant and anticoagulant properties of N,N′-substituted piperazines on the sample of donor human blood. The blood was collected by donor ulnar vein punction with dry sharp needle without syringe. The administration of drugs that influence on thrombocyte function was cancelled in 7÷10 days before the experiment.
(§2) In graduated plastic centrifuge tube 1 ml of 3.8% basic trisodium citrate solution with pH=7.4 was placed. The ulnar vein was punctuated, the freely effluent blood was collected up to 10 ml mark, the mixture was instantly stirred to prevent air bubbles appearance. The collected and stabilized blood was split in two 5 ml portions in two tubes.
(§3) To obtain thrombocyte enriched plasm the stabilized blood was spinned at 1000 rpm (150 g) for 8 min at room temperature. The repeated spinning of the blood at 3200 rpm (2300 g) for 20 min at 22° C. yielded thrombocyte depleted plasm.
(§4) The study of anticoagulant activity was done within 2 h after thrombocyte enriched plasm obtaining. The plasm was normalized to achieve thrombocyte concentration of 200-250×10^9/L by addition of thrombocyte-free plasm. The concentration of thrombocytes was measured on SOLAR AR 2110 analyzer.
(§5) Antiaggregant properties of N,N′-substituted piperazines were evaluated by their influence on thrombocyte aggregation in tests with ADP-, collagen- and ristocetin-induced aggregation. To dissolve N,N′-substituted piperazines and to dilute reagents Tris-HCl-buffer with pH=7.4 was used.
(§6) As the general characteristic of thrombocyte aggregation activity the maximum amplitude (MA) of aggregation was taken on. That is the peak value of transmittance coefficient of the sample after aggregation agent introduction expressed in % relative to the transmittance of thrombocyte-free plasm. The response was registered on ascending linear segment of aggregation curve for 16 s.
(§7) The measurements were done using 4-channel CHRONO-LOG 490-4D analyzer (CHRONO-LOG, USA). The temperature in the cell was 37° C., the spinning speed of magnetic stirrer was 1200 rpm.
(§8) In a cuvette 0.5 ml of N,N′-substituted piperazine solution was placed, then 0.4 ml of normalized thrombocyte plasm was added. The mixture was stirred and incubated at 37° C. for 5 min. The cuvette was placed in aggregometer, then 0.05 ml of aggregation inductor solution was added (ADP or collagen or ristocetin). Thrombocyte aggregation was measured for 3 min.
ADP-induced reversible thrombocyte aggregation test utilized CHRONO-PAR ADP reagent (CHRONO-LOG, USA) with 10 mol concentration. Primary (reversible) thrombocyte aggregation was evaluated by the response on addition of ADP threshold dose (ADP concentration is 1 mol) to plasm.

[2] = system: Collagen-induced thrombocyte aggregation; assay: Collagen-induced thrombocyte aggregation, donor human thrombocyte enriched plasm; assay type: cell-based; conditions: collagen inductor; for MA, %: human thrombocyte plasm; for inhibition at 500 µM / inhibition at 1250 µM / inhibition at 2500 µM / inhibition at 5000 µM: Homo sapiens, read-out: (MA0-MAx): MA0 * 100%
Experimental: as §1, §2, §3, §4, §5, §6, §7, §8
In collagen-induced thrombocyte aggregation test CHRONO-PAR COLLAGEN reagent (CHRONO-LOG, USA) was diluted with buffer solution until collagen concentration reached 10 µg/ml.

[3] = system: thrombocyte depleted plasm coagulation; assay: Activated partial thromboplastin time (APTT), anticoagulant properties; assay type: biochemical, human; conditions: for APTT: thrombocyte depleted plasm
Experimental: as §1, §2, §3
To study anticoagulant properties of N,N′-substituted piperazines activated partial thromboplastin time (APTT) was measured. That is the ability of N,N′-substituted piperazines to increase thrombocyte depleted plasm coagulation time compared to the ability of control sample. The set of reagents for APTT determination (Russian Scientific Research Institute of Hematology and Transfusiology Ministry of Health of Russian Federation by Technical Regulation 9398-214-01966456-99) and COAG-A-MATE® XM coagulometer (ORGANON TEKNIKA, USA) were used.
The solutions of N,N′-substituted piperazines were mixed with thrombocyte depleted plasm at 1:1 ratio, then 0.1 ml of APTT reagent was added, the mixture was incubated in the cuvette for 5 min at 37° C., then 0.1 ml of 0.277% CaCl2 solution was added. The time of coagulation (in seconds) was measured.

[4] = system: Ristocetin-induced thrombocyte aggregation; assay: Ristocetin-induced thrombocyte aggregation, donor human thrombocyte enriched plasm; assay type: cell-based; conditions: ristocetin inductor; for MA (60 c), %: amplitude at 60 s
Experimental: as §1, §2, §3, §4, §5, §6, §7, §8
To study ristocetin-induced thrombocyte aggregation CHRONO-PAR RISTOCETIN reagent (CHRONO-LOG, USA) was diluted with buffer solution until ristocetin concentration reached 12 mg/ml. Thrombocyte aggregation amplitude was measured in 60 s after the beginning of the reaction.

SMILES	MA, % ([1]; 1.25 mmol/L)	MA, % ([1]; 2.50 mmol/L)	MA, % ([1]; 5.0 mmol/L)	inhibition at 1250 µM ([1]; 1.25 mmol/L)	inhibition at 2500 µM ([1]; 2.50 mmol/L)	inhibition at 5000 µM ([1]; 5.0 mmol/L)	MA, % ([2]; 0.5 mmol/L)	MA, % ([2]; 1.25 mmol/L)	MA, % ([2]; 2.5 mmol/L)	MA, % ([2]; 5.0 mmol/L)	inhibition at 500 µM ([2]; 0.5 mmol/L)	inhibition at 1250 µM ([2]; 1.25 mmol/L)	inhibition at 2500 µM ([2]; 2.5 mmol/L)	inhibition at 5000 µM ([2]; 5.0 mmol/L)	MA, % ([1]; 0.2 mmol/L)	MA, % ([1]; 0.5 mmol/L)	inhibition at 200 µM ([1]; 0.2 mmol/L)	inhibition at 500 µM ([1]; 0.5 mmol/L)	(APTTx-APTT0): APTT0 * 100% ([3]; 1.7 mmol/L)	APTT ([3]; 1.7 mmol/L)	also measured
COc1ccc(C(=O)N2CCN(C(=N)NC(=N)N)CC2)c(OC)c1OC.Cl [Example 2, N-carbamidoyl-4-(2,3,4-trimethoxybenzoyl)piperazine-1-carboximidamide hydrochloride]	15.0 ± 1.8%	8.7 ± 2.2%	3.1 ± 0.8%	21.1%	55%	84.2%	73.0 ± 7.3%	65.10 ± 1.8%	58.7 ± 2.9%	24.1 ± 0.8%	7.9%	17.9%	26%	69.6%	–	–	–	–	–	–	–
COc1ccc(CN2CCN(C(=N)NC(=N)N)CC2)c(OC)c1OC.Cl [Example 4, N-carbamidoyl-4-(2,3,4-trimethoxybenzyl)piperazine-1-carboximidamide hydrochloride]	10.6 ± 2.0%	5.7 ± 1.1%	1.7 ± 0.5%	42.1%	68.9%	90.7%	–	59.0 ± 5.9%	52.2 ± 7.9%	26.2 ± 3.5%	–	22.1%	31%	65.4%	–	–	–	–	–	–	–
COc1ccc(CN2CCN(C(=N)N)CC2)c(OC)c1OC.O=C(O)/C=C/C(=O)O [Example 8, 4-(2,3,4-trimethoxybenzyl)piperazine-1-carboximidamide fumarate]	8.5 ± 2.8%	2.5 ± 1.6%	–	55.3%	86.8%	–	72.3 ± 6.3%	63.5 ± 9.8%	58.5 ± 9.6%	51.3 ± 7.9%	5.2%	16.8%	23.3%	32.8%	18.5 ± 2.8%	14.3 ± 3.0%	2.6%	24.7%	27.0%	61.1 ± 4.4 s	(APTTx-APTT0): APTT0 * 100% ([3]; 2.5 mmol/L): 56.5%; APTT ([3]; 2.5 mmol/L): 71.3 ± 5.2 s; (APTTx-APTT0): APTT0 * 100% ([3]; 4.1 mmol/L): 89.4%; APTT ([3]; 4.1 mmol/L): 91.1 ± 9.9 s; (APTTx-APTT0): APTT0 * 100% ([3]; 8.3 mmol/L): 201.5%; APTT ([3]; 8.3 mmol/L): 145.0 ± 7.3 s; MA (60 c), % ([4]; 0.2 mmol/L): 60.4 ± 9.1%; (MAx-MA0): MA0 * 100% ([4]; 0.5 mmol/L): 16.1%; MA (60 c), % ([4]; 0.5 mmol/L): 50.7 ± 8.7%; (MAx-MA0): MA0 * 100% (Ozagrel: (MA0-MAx): MA0 * 100%) ([4]; 1.25 mmol/L): 20.5%; MA (60 c), % ([4]; 1.25 mmol/L): 48.0 ± 5.8%; (MAx-MA0): MA0 * 100% (Ozagrel: (MA0-MAx): MA0 * 100%) ([4]; 2.5 mmol/L): 35.1%; MA (60 c), % ([4]; 2.5 mmol/L): 39.2 ± 11.6%; (MAx-MA0): MA0 * 100% (Ozagrel: (MA0-MAx): MA0 * 100%) ([4]; 5.0 mmol/L): 44.7%; MA (60 c), % ([4]; 5.0 mmol/L): 33.4 ± 9.9%
COc1cc(CN2CCN(C(=N)N)CC2)ccc1OCC(C)C.Cl [Example 12, 4-(4-(2-methylpropyloxy)-3-methoxybenzyl)piperazine-1-carboximidamide hydrochloride]	5.1 ± 2.2%	1.7 ± 0.3%	–	67.5%	89.2%	–	71.9 ± 5.1%	63.1 ± 9.1%	55.4 ± 9.0%	51.0 ± 7.1%	6.5%	16.8%	28%	35%	14.1 ± 2.0%	11.2 ± 3.3%	10.2%	28.7%	9.4%	50.1 ± 4.0 s	(APTTx-APTT0): APTT0 * 100% ([3]; 2.5 mmol/L): 38.0%; APTT ([3]; 2.5 mmol/L): 63.2 ± 5.1 s; (APTTx-APTT0): APTT0 * 100% ([3]; 4.1 mmol/L): 53.3%; APTT ([3]; 4.1 mmol/L): 70.2 ± 3.2 s; (APTTx-APTT0): APTT0 * 100% ([3]; 8.3 mmol/L): 205.7%; APTT ([3]; 8.3 mmol/L): 140.0 ± 4.7 s
